# Legend:
# OT-1 splenocytes [1] = test: Apoptosis (Annexin V) and IL-2 production of OT-1 splenocytes stimulated without IL-2; assay type: cell-based, mouse; details: OVA257-264 500 nM without IL-2, 5 days
# Method: (§1) Naïve splenocytes from OT-1 mice were stimulated in vitro with OVA257-264 (500 nM) and IL-2 (60 IU/mL) in the presence or absence of an added compound for 3 days at a density of 1 million/mL (100 uL/well in 96/well plate), then expanded for 4 days. On day 7, PD-1, Tim3 and TCF-1 expressions were assessed by flow cytometry by staining cells with anti-CD8a (PerCP-Cy5.5), anti-Tim3 (BV421) and anti-TCF-1 (AF488) antibodies. For adoptive transfer, 0.6M B16-OVA cells (6×10^5) were inoculated subcutaneously 3 to 5 days before transfer in C57BL/6. On the day of adoptive transfer, mice were irradiated with 5 Gy X-ray, randomized according to tumor size, and intravenously injected with 0.2-0.3M of CD8+OT-1 T cells (2×10^5) expanded under different conditions, followed by administration of 50000 IU IL-2 every 12 h for four days. In the control group, mice were injected with cell-free vehicle only. For assessment of adoptive transfer of OT-1 CD8+ T cells activated and expanded by contacting the cells with fructose, on day 9 after transfer, anti-PD-1 (100 ug/mouse) was administered to the mice that had received T cell transfer. For assessment of adoptive transfer of OT-1 CD8+ T cells activated and expanded by contacting cells with Neu5Ac, on day 14 and day 21 after transfer, anti-PD-1 (100 ug/mouse) was administered to the mice that had received T cell transfer. The tumor growth was monitored every 3 to 4 days by measuring tumor size. Percent survival was also monitored and recorded within a period of 40 days post treatment. To evaluate tumor infiltrating OT-1 T cells, 0.6M B16-OVA cells (6×10^5) were inoculated subcutaneously 3 to 5 days before transfer in C57BL/6. On the day of adoptive transfer, mice were irradiated with 5 Gy X-ray, randomized according to tumor size, and intravenously injected with 0.2-0.3M of CD8+OT-1 T cells (2×10^5) expanded under different conditions, followed by administration of 50000 IU IL-2 every 12 h for four days. Tumors were then isolated and assessed for percentage of OT-I T cells from the total CD8+ T cells and OT-1 T cell number per gram of tumor tissue. To evaluate apoptosis, Naïve OT-1 splenocytes were stimulated by OVA257-264 (500 nM) without IL-2 in the presence of absence of sugars for 5 days followed by using Annexin V Apoptosis detection kit (Biolegend). […] To evaluate other cellular characteristics, naïve OT-1 splenocytes were stimulated by OVA257-264 (500 nM) with IL-2 (60 IU/mL) in the presence or absence of sugars for 7 or 8 days. On day 7 or 8 cells were taken and analyzed by assessment of ROS, NADPH/NADP+ ratio, and GSH/GSSG ratio.
# B16-OVA tumor = assay type: in vivo, mouse
# Method: as §1
# OT-I splenocytes = test: OT-I splenocyte culture with purine/pyrimidine pathway compounds; assay type: cell-based, mouse; details: CD8+ T cells
# Method: We therefore tested if purine and pyrimidine nucleotides have similar effects as N-Acetylneuraminic acid to help maintain less differentiated phenotypes of T cells during expansion. OT-I splenocytes were cultured with 500 nM […] peptide (OVA257-264) for three days at initial cell density of 1×10^6/mL to activate and expand the CD8+ T cell population. Different concentrations of the products or intermediates in purine or pyrimidine de novo synthesis pathways were added on day 3. The tested compounds include, e.g., guanosine, deoxyguanosine, adenosine, deoxyadenosine, inosine, xanthosine, orotidine, uridine, cytidine, deoxycytidine, thymidine, deoxythymidine, 5-Aminoimidazole-4-carboxamide ribonucleotide (AICAR), orotate, and dihydroorotate. The phenotype of expanded T cells were analyzed on day 5.
# HA-28z CAR T cells = test: HA-28z (GD2) CAR T cell expansion with sugars; details: 50 mM, 14 days; both CD8^+ and CD4^+ CAR T cells
# [2] = test system: MC38 TSA-reactive CD8+ TILs; test: Rapid expansion of TSA-reactive CD8+ TILs from MC38 tumors; assay type: cell-based, mouse
# Method: Sugars were added at the beginning or during the expansion of the TILs, and kept till the end of expansion. On expansion day 9, phenotypes of the expanded T cells were assessed, and the cells were used for adoptive transfer (FIG. 6E). For adoptive transfer, 0.5 million cells (B16-OVA or MC38) were inoculated subcutaneously on each mouse on day 0, Listeria monocytogenes-OVA (LM-OVA) infection 0.5 million CFU/mice on day 1, and blood analysis was recorded on day 7.
# OT-1 splenocytes [3] = test: ROS, NADPH/NADP+ ratio and GSH/GSSG ratio of OT-1 splenocytes; assay type: cell-based, mouse; details: day 7 or 8, with IL-2; vs T cells not treated with sugar
# Method: as §1
# OT-1 cells = test: OT-I-Tcf7GFP splenocyte screen: proliferation and Tim3−TCF-1+ ratio; assay type: cell-based, mouse; details: Day7, 50 mM
# Method: Cell number was recorded on day 3 and day 7. On day 7, cells were stained with anti-CD8a (PerCP-Cy5.5) and anti-Tim3 (BV421) antibodies for flow cytometry or plate reader analysis.
# Because TCF1 expression positively correlates with T cell stemness, the greater signal of EGFP a T cell expresses, the less differentiated the T cell is. Furthermore, if the compound also facilitates T cells proliferation, there would be more T cells per well in comparison to the untreated control. Therefore, a compound that not only maintains TCF-1 expression but also facilitates T cell growth would produce the strongest green fluorescence intensity. […] GlcA stands for glucuronic acid.
# P14 cells = test: P14 splenocyte in vitro activation, re-stimulation and expansion; assay type: cell-based, mouse; details: 50 mM; for Fold of proliferation, Normalized to W/O: P14 cells
# TILs from B16-OVA tumor = assay type: cell-based, mouse; details: day 7 rapid expansion
# Method: TILs from B16-OVA tumor were isolated on day10 after inoculation, and Tim-3^−TCF/GFP^+ and Tim-3^+TCF/GFP^− in tetramer positive population were collected by live cell sorting (FIG. 15A). Phenotype features of Tim-3^−TCF/GFP^+ (FIG. 15B) and Tim-3^+TCF/GFP^− (FIG. 15C) were analyzed on day 7 after rapid expansion with feeder cells (TILs/feeder cell: 1/200) in the presence or absence of sugars.
# To investigate which population that sugars mainly changed on T cells, B16-OVA cancer cells (7×10^5 cells) were subcutaneously inoculated into the left or right flank of TCF7^GFP mice expressing an EGFP fluorescent reporter from the endogenous Tcf7 locus, which enable us to track the expression of TCF-1 in live cells.
compound,measurement,setting,value
"CC(=O)N[C@H]1[C@H]([C@H](O)[C@H](O)CO)OC(O)(C(=O)O)C[C@@H]1O (stereo partly drawn) [Neu5Ac, N-acetylneuraminic acid]",viability and apoptotic characteristics,OT-1 splenocytes [1]; vs T cells not treated with sugar,enhanced viability and differential apoptotic characteristics
same,production of IL-2,OT-1 splenocytes [1]; vs no sugar,significantly greater
same,capabilities to control tumor growth by way of tumor volume and survival rate,"B16-OVA tumor; treated OT-1 T cells used with anti-PD-1 antibody treatment, vs untreated T cells",significantly better
same,tumor infiltrating OT-1 T cell numbers,B16-OVA tumor; treated T cells transferred to B16-OVA mice,increased
same,purine and pyrimidine biosynthesis end products and certain intermediates,OT-I splenocytes,upregulated
same,CAR T cells proliferated times faster than cells expanded without sugars,HA-28z CAR T cells,1.5-2 times
same,cell surface anti-CLA (Cutaneous Lymphocyte-associated Antigen) staining,[2],significant increase
same,GSH/GSSG ratio,OT-1 splenocytes [3],greater
same,NADPH/NADP+ ratio,OT-1 splenocytes [3],greater
same,ROS,OT-1 splenocytes [3],significantly less
same,Tim3^−TCF-1^+ ratio of CD8^+ T cells (%),OT-1 cells; w/o 2.6,59.6%
same,activity at 50000 µM,"OT-1 cells; Mus musculus, Splenocyte, 168 h, OT-1 cells, read-out: Proliferation fold, Normalized to W/O",143%
same,"Fold of proliferation, Normalized to W/O",P14 cells; Day6,2.29 fold
same,Tim3^−TCF-1^+ ratio of CD8^+ T cells (%),"P14 cells; Day6, w/o 55.0",97.4%
same,"Fold of proliferation, Normalized to W/O",P14 cells; Day9,1.40 fold
same,Tim3^−TCF-1^+ ratio of CD8^+ T cells (%),"P14 cells; Day9, w/o 3.5",71.3%
same,reversal of sorted Tim-3^+TCF-GFP^− back to Tim-3^−TCF-GFP^+ phenotype,TILs from B16-OVA tumor,partially reverse
same,maintenance of progenitor exhausted features of sorted Tim-3-TCF-GFP^+ TILs,TILs from B16-OVA tumor; vs without sugars,maintain more Tim-3^−TCF/GFP^+ cells

# — US20250027930A1, “SMALL MOLECULES FOR REPROGRAMING ANTI-TUMOR IMMUNITY OF T CELLS” (THE SCRIPPS RESEARCH INSTITUTE, priority 2021, published 2025)
